Laboratory results: US11453632B2, “1-phenyl-2-phenylethane derivative” (KAO CORPORATION, priority 2018, dated 2022)

What was measured:
ERα = molecular target: T1, ERα (Homo sapiens, UniProt P03372); assay: Ability to activate transcription mediated by ERα (pcDNA3-ERα, pERE luciferase, HEK293 cells); format: cell-based; settings: negative control 0.004573
T1 construct: host or cells: HEK293
T1 sequence (P03372 1-595): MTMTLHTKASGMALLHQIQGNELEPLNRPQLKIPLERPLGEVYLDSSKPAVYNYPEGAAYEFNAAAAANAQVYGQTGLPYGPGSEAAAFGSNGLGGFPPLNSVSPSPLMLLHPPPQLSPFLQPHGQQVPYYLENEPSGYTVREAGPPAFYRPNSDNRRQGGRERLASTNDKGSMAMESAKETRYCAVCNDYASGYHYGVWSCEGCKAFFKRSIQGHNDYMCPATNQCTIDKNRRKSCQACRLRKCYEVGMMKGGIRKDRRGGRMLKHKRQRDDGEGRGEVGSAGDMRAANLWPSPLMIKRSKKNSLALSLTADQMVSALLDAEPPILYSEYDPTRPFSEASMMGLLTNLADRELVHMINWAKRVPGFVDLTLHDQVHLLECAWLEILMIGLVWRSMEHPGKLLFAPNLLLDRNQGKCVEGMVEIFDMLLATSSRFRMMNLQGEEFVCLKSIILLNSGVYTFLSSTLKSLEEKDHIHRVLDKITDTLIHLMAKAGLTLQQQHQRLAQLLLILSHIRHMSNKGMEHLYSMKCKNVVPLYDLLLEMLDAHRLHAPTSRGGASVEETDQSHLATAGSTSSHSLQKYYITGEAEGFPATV
Description: (§1) 1) Experimental Method (Measurement of Transcriptional Activity Mediated by ERs)
(§2) HEK293 cells were inoculated at a cell density of 4.0×10^4 cells/well to a 96-well plate. After 12 hours therefrom, the medium was replaced with a culture solution (DMEM containing 5% (v/v) charcoal-treated serum). The cells were cotransfected with pcDNA3-ERα or pcDNA3-ERβ (Promega Corp.) and pERE and pRL-CMV (Promega Corp.) using Lipofectamine 2000 (Invitrogen Corp.) according to the protocol attached to the product. 24 hours after transfection, the medium was replaced with a culture medium containing a test sample, followed by culture for another 24 hours. Then, luciferase activity was measured using Dual-Glo™ Luciferase Assay System (Promega Corp.) according to the attached protocol. The luminescence intensity of firefly luciferase (index for the ability to activate transcription mediated by ERE) was divided by the luminescence intensity of Renilla reniformis luciferase (index for the transfection efficiency of the plasmids) to calculate a relative light unit (RLU).

ERβ = molecular target: T2, ERβ (Homo sapiens, UniProt Q92731); assay: Ability to activate transcription mediated by ERβ (pcDNA3-ERβ, pERE luciferase, HEK293 cells); format: cell-based; settings: negative control 0.001475
T2 construct: host or cells: HEK293
Description: as §1, §2

[1] = system: back skin browning induced by testosterone; assay: Effect on sebum secretion (back skin browning) in testosterone-treated rat; format: in vivo; settings: testosterone 3 mg/kg/day plus test substance, subcutaneous osmotic pump, 28 days
Excerpt: 12-week-old male Slc:SD (SPF) rats were obtained from Japan SLC, Inc. An acclimatization period was established for 1 week after receipt. During the acclimatization period, the rats were allowed to freely ingest a powder diet (AIN-93G). 2) Implantation of Osmotic Pump After body weight measurement, back hair was shaved under isoflurane (AbbVie GK) inhalation anesthesia, and carprofen was subcutaneously administered to the rats. Then, an incision of approximately 1 cm at the maximum was made on the cranial side in the back. An osmotic minipump Alzet (Muromachi Kikai Co., Ltd.) containing testosterone and compound 17-F or finasteride (Sigma-Aldrich Co. LLC) was subcutaneously implanted. From this osmotic pump, testosterone (3 mg/kg body weight/day) (Sigma-Aldrich Co. LLC) and compound 17-F (0.1 mg/body weight/day or 1 mg/kg body weight/day) or finasteride (0.1 mg/kg body weight/day or 1 mg/kg body weight/day) were continuously administered for 28 days. Since the implantation of the osmotic pump, the rats were allowed to freely ingest customized feed AIN-93G (Oriental Yeast Co., Ltd.) free from components derived from soybeans. 3) Photographing of Skin and Harvesting of Prostate After a lapse of 28 days, body weights were measured, and subsequently, the rats were euthanized by blood letting under isoflurane anesthesia. […] Wet weights were measured. […]

T2 sequence (Q92731 whole entry): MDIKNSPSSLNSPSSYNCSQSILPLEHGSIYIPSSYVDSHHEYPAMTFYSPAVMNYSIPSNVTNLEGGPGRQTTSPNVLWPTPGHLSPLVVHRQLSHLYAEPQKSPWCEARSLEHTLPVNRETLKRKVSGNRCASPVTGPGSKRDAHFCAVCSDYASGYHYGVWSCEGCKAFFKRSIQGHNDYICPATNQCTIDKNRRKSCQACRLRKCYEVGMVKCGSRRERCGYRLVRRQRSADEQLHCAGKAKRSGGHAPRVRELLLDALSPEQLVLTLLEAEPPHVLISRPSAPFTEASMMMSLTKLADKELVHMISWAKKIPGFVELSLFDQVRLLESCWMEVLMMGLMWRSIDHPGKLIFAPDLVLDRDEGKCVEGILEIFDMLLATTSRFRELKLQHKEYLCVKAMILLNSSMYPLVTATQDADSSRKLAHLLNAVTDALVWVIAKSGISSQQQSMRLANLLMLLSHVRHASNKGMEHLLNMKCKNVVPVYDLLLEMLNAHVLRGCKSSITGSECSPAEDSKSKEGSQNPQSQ

relative light unit (RLU), transcription activation ERα (ERα; 0.1 pM): 0.008213
relative light unit (RLU), transcription activation ERα (ERα; 1 pM): 0.01023
relative light unit (RLU), transcription activation ERα (ERα; 10 pM): 0.01835
relative light unit (RLU), transcription activation ERα (ERα; 100 pM): 0.04125
relative light unit (RLU), transcription activation ERα (ERα; 1000 pM): 0.06202
relative light unit (RLU), transcription activation ERα (ERα; 10000 pM): 0.05401
relative light unit (RLU), transcription activation ERβ (ERβ; 0.01 pM): 0.002468
relative light unit (RLU), transcription activation ERβ (ERβ; 0.1 pM): 0.004255
relative light unit (RLU), transcription activation ERβ (ERβ; 1 pM): 0.01104
relative light unit (RLU), transcription activation ERβ (ERβ; 10 pM): 0.03023
relative light unit (RLU), transcription activation ERβ (ERβ; 100 pM): 0.03238
relative light unit (RLU), transcription activation ERβ (ERβ; 1000 pM): 0.03342
relative light unit (RLU), transcription activation ERβ (ERβ; 10000 pM): 0.03507
Compound: Oc1ccc(CC(C=C(F)F)c2ccc(O)cc2F)c(F)c1 (centres unmarked) [Compound 17-F, 4,4′-(4,4-difluorobut-3-ene-1,2-diyl)bis(3-fluorophenol)]
skin browning induced by testosterone (sebum secretion, FIG. 3) [1]: markedly inhibited
